Experimental data reported in US4594356A, “Method for inducing mydriasis in animals” (Key Pharmaceuticals, Inc., priority 1985, dated 1986).
Like-named read-outs stand apart in the source and are kept apart here. One block for each molecule: values may come before it.

Legend:
[1] = Enzymatic hydrolysis in corneal tissue homogenate at 37° C.; assay type: in vitro ADME, New Zealand albino rabbits; settings: Corneal tissue 10% homogenate, pH 7.4, 37° C.
Protocol: (§1) The stability of the ethyl succinyl derivative in isotonic saline buffer was determined in order to contrast the rates of hydrolysis of a chemical system with those of the ocular enzymatic systems. Ocular tissues were obtained from New Zealand albino rabbits. Homogenates were prepared in isotonic saline with a potassium phosphate buffer pH 7.4. High pressure liquid chromatography systems with spectrophotometric (254 nm) and electrochemical detection were used for determination.

[2] = Enzymatic hydrolysis in aqueous humor at 37° C.; assay type: in vitro ADME, New Zealand albino rabbits
Protocol: as §1

[3] = Stability in isotonic saline buffer pH 7.4 at 37° C.; assay type: physicochemical; settings: Isotonic saline pH 7.4, 37° C.
Protocol: as §1

[4] = Enzymatic hydrolysis in iris/ciliary body homogenate at 37° C.; assay type: in vitro ADME, New Zealand albino rabbits; settings: Iris/ciliary body 10% homogenate, pH 7.4, 37° C.
Protocol: as §1

pupil [5] = assay: Mydriatic study: pupil diameter difference between drug-treated and saline-treated eye in normal albino rabbits; assay type: in vivo, New Zealand male albino rabbits; settings: drug eye vs saline eye difference
Protocol: Normal New Zealand male albino rabbits weighing from 2 to 3 kg. were used in the studies. The animals were placed in fiberglass restraining cages at least a half hour before the experiment and remained there throughout the test. The cages were located in a light and temperature controlled room. Pupil diameter was measured with a monostat vernier caliper held at a constant distance from observer and animal eyes. Drug solutions were formulated by dissolving the test agent in 0.9% saline solutions.
In the test procedure, a standard dose volume of 0.05 ml of the drug solution was applied to one eye and 0.9% saline was applied to the other eye of the same animal. The differences in the same animals between pupil diameter in millimeters of the eye with drug applied against the other eye with only saline instilled were recorded.
The pupillary dose response results are shown below in Table I.

[6] = Enzymatic hydrolysis in human plasma at 37° C.; assay type: in vitro ADME
intraocular pressure [7] = settings: cited from earlier work; for ocular tension (intraocular pressure) reduction: clinical study
glaucoma = settings: cited from earlier work
intraocular pressure [8] = settings: cited from earlier work
[9] = Half-life of adrenalone diesters (R methyl, R1 = R2); assay type: in vitro ADME; settings: R is methyl, medium not stated, read-out: half-life (t1/2)
From the text: Further, it should be noted that R is preferrably methyl.

pupil [10] = settings: 2% solution; cited from earlier work
[11] = Ocular distribution after topical administration of the diester; assay type: in vivo; settings: after topical administration of compound of Formula I (formed by hydrolysis / reduction-hydrolysis)
From the text: Thus, topical adminstration of a compound of Formula I to the eye of an animal effectively induces pupil diameter enlargement and lowers intraocular pressure for a limited duration as a novel type of site-specific delivery system for epinephrine without the concomitant appearance of any significant undesirable side-effects associated with the prior art.

eye [12] = settings: cited from earlier work
eye [13] = settings: cited from earlier work; for ocular sympathomimetic activity: in vivo; for potency relative to dipivalyl epinephrine: on a molar basis
eye [14] = settings: in vivo; cited from earlier work
eye [15] = settings: topical, prolonged usage; cited from earlier work

- k (hydrolysis rate constant) [1]: 3.08 min^-1 × 10^-1
- half-life ([1]; rabbit): 2.25 min
- k (hydrolysis rate constant) [2]: 5.09 min^-1 × 10^-1
- half-life ([2]; rabbit): 1.36 min
- k (hydrolysis rate constant) [3]: 0.04 min^-1 × 10^-1
- half-life ([3]; isotonic saline buffer): 173 min
- k (hydrolysis rate constant) [4]: 7.91 min^-1 × 10^-1
- half-life ([4]; rabbit): 0.88 min
- half-life [6]: 1.01 min
- k (hydrolysis rate constant) [6]: 6.68 min^-1 × 10^-1
SMILES: CCOC(=O)CCC(=O)Oc1ccc(C(=O)CNC)cc1OC(=O)CCC(=O)OCC [0,0-di(ethylsuccinyl) adrenalone hydroperchlorate]
- Pupil diameter (X ± S.E.) (pupil [5]; 1.0×10^-2 M, 10 minutes): 0.34 mm
- Pupil diameter (X ± S.E.) (pupil [5]; 1.0×10^-2 M, 20 minutes): 0.43 mm
- Pupil diameter (X ± S.E.) (pupil [5]; 1.0×10^-2 M, 30 minutes): 1.27 mm
- Pupil diameter (X ± S.E.) (pupil [5]; 1.0×10^-2 M, 60 minutes): 1.42 mm
- Pupil diameter (X ± S.E.) (pupil [5]; 1.0×10^-2 M, 120 minutes): 0.18 mm
- Pupil diameter (X ± S.E.) (pupil [5]; 1.0×10^-2 M, 180 minutes): 0.37 mm
- Pupil diameter (X ± S.E.) (pupil [5]; 1.5×10^-2 M, 10 minutes): 0.33 mm
- Pupil diameter (X ± S.E.) (pupil [5]; 1.5×10^-2 M, 20 minutes): 0.80 mm
- Pupil diameter (X ± S.E.) (pupil [5]; 1.5×10^-2 M, 30 minutes): 1.10 mm
- Pupil diameter (X ± S.E.) (pupil [5]; 1.5×10^-2 M, 60 minutes): 2.13 mm
- Pupil diameter (X ± S.E.) (pupil [5]; 1.5×10^-2 M, 120 minutes): 0.34 mm
- Pupil diameter (X ± S.E.) (pupil [5]; 1.5×10^-2 M, 180 minutes): 0.16 mm
- Pupil diameter (X ± S.E.) (pupil [5]; 2.0×10^-2 M, 10 minutes): 0.69 mm
- Pupil diameter (X ± S.E.) (pupil [5]; 2.0×10^-2 M, 20 minutes): 1.12 mm
- Pupil diameter (X ± S.E.) (pupil [5]; 2.0×10^-2 M, 30 minutes): 1.64 mm
- Pupil diameter (X ± S.E.) (pupil [5]; 2.0×10^-2 M, 60 minutes): 3.11 mm
- Pupil diameter (X ± S.E.) (pupil [5]; 2.0×10^-2 M, 120 minutes): 0.79 mm
- Pupil diameter (X ± S.E.) (pupil [5]; 2.0×10^-2 M, 180 minutes): 0.31 mm
- Pupil diameter (X ± S.E.) (pupil [5]; 2.4×10^-3 M, 10 minutes): 0.15 mm
- Pupil diameter (X ± S.E.) (pupil [5]; 2.4×10^-3 M, 20 minutes): 0.18 mm
- Pupil diameter (X ± S.E.) (pupil [5]; 2.4×10^-3 M, 30 minutes): 0.20 mm
- Pupil diameter (X ± S.E.) (pupil [5]; 2.4×10^-3 M, 60 minutes): 0.30 mm
- Pupil diameter (X ± S.E.) (pupil [5]; 2.4×10^-3 M, 120 minutes): 0.08 mm
- Pupil diameter (X ± S.E.) (pupil [5]; 2.4×10^-3 M, 180 minutes): 0.11 mm
- Pupil diameter (X ± S.E.) (pupil [5]; 2.5×10^-2 M, 10 minutes): 0.44 mm
- Pupil diameter (X ± S.E.) (pupil [5]; 2.5×10^-2 M, 20 minutes): 1.99 mm
- Pupil diameter (X ± S.E.) (pupil [5]; 2.5×10^-2 M, 30 minutes): 2.90 mm
- Pupil diameter (X ± S.E.) (pupil [5]; 2.5×10^-2 M, 60 minutes): 3.29 mm
- Pupil diameter (X ± S.E.) (pupil [5]; 2.5×10^-2 M, 120 minutes): 1.66 mm
- Pupil diameter (X ± S.E.) (pupil [5]; 2.5×10^-2 M, 180 minutes): 0.22 mm
- Pupil diameter (X ± S.E.) (pupil [5]; 5.0×10^-3 M, 10 minutes): 0.20 mm
- Pupil diameter (X ± S.E.) (pupil [5]; 5.0×10^-3 M, 20 minutes): 0.56 mm
- Pupil diameter (X ± S.E.) (pupil [5]; 5.0×10^-3 M, 30 minutes): 0.82 mm
- Pupil diameter (X ± S.E.) (pupil [5]; 5.0×10^-3 M, 60 minutes): 0.78 mm
- Pupil diameter (X ± S.E.) (pupil [5]; 5.0×10^-3 M, 120 minutes): 0.46 mm
- Pupil diameter (X ± S.E.) (pupil [5]; 5.0×10^-3 M, 180 minutes): 0.58 mm

SMILES: CNC[C@H](O)c1ccc(O)c(O)c1 [1-adrenaline]
- ocular tension (intraocular pressure) reduction (intraocular pressure [7]): lowered ocular tension

SMILES: CC(C)NCC(=O)c1ccc(O)c(O)c1 [3,4-dihydroxy-2-(isopropylamino) acetophenone]
- mydriatic activity (side-effect) (glaucoma; in vivo): toxic, harmful or deleterious side-effect
- treatment of glaucoma (glaucoma; in vivo): successful treatment of glaucoma
- concentration needed to achieve the desired result (glaucoma; treatment of glaucoma): 3%

SMILES: CC(C)NCC(O)c1ccc(O)c(O)c1 (stereo not drawn) [Isoproterenol]
- intraocular pressure reduction (intraocular pressure [8]; in vivo): satisfactorily reduced intraocular pressure
- mydriasis (intraocular pressure [8]; in vivo): causing mydriasis
- serious side-effects (intraocular pressure [8]; treatment of glaucoma): taachycardia, weakness, and palpatations were observed

- half-life [9]: 1.01 min
SMILES: CCOC(=O)CCC(=O)Oc1ccc(C(=O)CNC)cc1OC(=O)CCC(=O)OCC [R1 = R2 (1)]

SMILES: CCCC(=O)Oc1ccc(C(=O)CNC)cc1OC(=O)CCC [R1 = R2 (2)]
- half-life [9]: 2.13 min

- half-life [9]: 2.96 min
SMILES: CCCCCC(=O)Oc1ccc(C(=O)CNC)cc1OC(=O)CCCCC [R1 = R2 (3)]

- half-life [9]: 8.55 min
SMILES: CCN(CC)C(=O)CCC(=O)Oc1ccc(C(=O)CNC)cc1OC(=O)CCC(=O)N(CC)CC [R1 = R2 (4)]

- half-life [9]: 10.1 min
SMILES: CNCC(=O)c1ccc(OC(=O)C=Cc2ccccc2)c(OC(=O)C=Cc2ccccc2)c1 [R1 = R2 (5)]

- half-life [9]: 19.2 min
SMILES: CNCC(=O)c1ccc(OC(=O)CC(C)C)c(OC(=O)CC(C)C)c1 [R1 = R2 (6)]

- half-life [9]: 57.8 min
SMILES: CNCC(=O)c1ccc(OC(=O)C(C)(C)C)c(OC(=O)C(C)(C)C)c1 [R1 = R2 (7)]

SMILES: CNCC(=O)c1ccc(O)c(O)c1 [adrenalone]
- mydriatic activity (pupil [10]): only a minimal level of mydriatic activity
- ocular distribution [11]: found in every compartment of the eye
- intraocular pressure reduction (intraocular pressure [7]; 2% solution, patients suffering from glaucoma): did not cause any reduction in the intraocular pressure
- ocular tension (intraocular pressure) reduction (intraocular pressure [7]): do not
- mydriasis (eye [12]; high concentrations): will not produce mydriasis
- reduction in the eye to adrenalin (eye [12]; topical administration): not reduced in the eye to the active adrenalin

SMILES: CNC[C@@H](O)c1ccc(O)c(O)c1 [d-adrenalin]
- ocular tension (intraocular pressure) reduction (intraocular pressure [7]): do not

SMILES: CNCC(=O)c1ccc(OC(=O)CC(C)C)c(OC(=O)CC(C)C)c1 [diisovaleryl]
- ocular sympathomimetic activity (eye [13]): High ocular sympathomimetic activity
- potency relative to dipivalyl epinephrine (eye [13]): more potent on a molar basis than the successful prodrug of epinephrine, dipivalyl epinephrine

SMILES: CNCC(=O)c1ccc(OC(=O)C(C)(C)C)c(OC(=O)C(C)(C)C)c1 [dipivalyl]
- recovery of normal vision (eye [14]): did not achieve faster recovery of normal vision
- ocular sympathomimetic activity (eye [13]): High ocular sympathomimetic activity
- potency relative to dipivalyl epinephrine (eye [13]): more potent on a molar basis than the successful prodrug of epinephrine, dipivalyl epinephrine

SMILES: CNC[C@H](O)c1ccc(O)c(O)c1 [epinephrine]
- mydriasis (side effect) (eye [15]): frequently causes mydriasis
- retinal maculopathy (side effect) (eye [15]): sometimes retinal maculopathy
- ocular distribution [11]: found only in the uveal (iris-ciliary body) tissues
